From publication PMC6934184, “Selective DNA-PKcs inhibition extends the therapeutic index of localized radiotherapy and chemotherapy” (The Journal of Clinical Investigation, 2019)

Molecular target: T1, BRAF V599E (Homo sapiens, UniProt P15056, V600E)
T1 construct: purchased Thermo Fisher Scientific (Life Technologies) SelectScreen
Assay: SelectScreen Z'LYTE
Type: biochemical
Details: ATP 100 µM
Procedure, shortened: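 NU5455 was profiled across the SelectScreen Broad panel of kinase activity and binding assays. Z'LYTE reactions such as CSF1R ran at apparent Km ATP, while the Adapta CAMK1 assay used ATP listed as 10. Values are given as percent.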

T1 sequence (P15056 417-766 V600E limits assumed): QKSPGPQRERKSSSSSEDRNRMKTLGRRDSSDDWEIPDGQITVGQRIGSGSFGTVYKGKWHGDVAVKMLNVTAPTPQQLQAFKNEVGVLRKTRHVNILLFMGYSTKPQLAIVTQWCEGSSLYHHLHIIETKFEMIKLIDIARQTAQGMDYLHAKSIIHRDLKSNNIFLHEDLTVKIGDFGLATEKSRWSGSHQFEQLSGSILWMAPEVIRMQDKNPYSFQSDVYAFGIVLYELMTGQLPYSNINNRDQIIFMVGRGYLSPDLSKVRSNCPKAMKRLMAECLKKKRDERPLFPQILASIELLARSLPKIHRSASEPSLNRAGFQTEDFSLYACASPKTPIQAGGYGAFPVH

## CN(C(=O)CN1CCOCC1)c1ccc2sc3c(-c4cccc5c(=O)cc(N6CC7CCC(C6)O7)oc45)cccc3c2c1 [NU5455]
  inhibition at 1 µM: 18.3%
